Here are results for ten molecules from patent US20240190890A1, “MK2 INHIBITORS AND USES THEREOF” (Bristol-Myers Squibb Company, priority 2022, published 2024).

p38a activated, mitogen-activated protein kinase-activated protein kinase 2 (MAPKAP-K2 or MK2) enzyme, sequence (P49137 whole entry): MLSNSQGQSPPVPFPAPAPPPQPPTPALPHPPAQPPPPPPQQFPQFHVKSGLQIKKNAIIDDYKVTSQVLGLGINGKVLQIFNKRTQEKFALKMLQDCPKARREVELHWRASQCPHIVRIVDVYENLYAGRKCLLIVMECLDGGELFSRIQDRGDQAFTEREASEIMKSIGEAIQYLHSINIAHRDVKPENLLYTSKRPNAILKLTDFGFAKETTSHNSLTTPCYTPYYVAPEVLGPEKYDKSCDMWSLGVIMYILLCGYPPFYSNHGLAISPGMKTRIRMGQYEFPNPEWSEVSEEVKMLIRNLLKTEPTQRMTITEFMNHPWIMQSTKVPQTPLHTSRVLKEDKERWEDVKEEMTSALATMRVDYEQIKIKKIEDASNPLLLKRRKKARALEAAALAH

The target in this experiment is p38a activated, mitogen-activated protein kinase-activated protein kinase 2 (MAPKAP-K2 or MK2) enzyme (Homo sapiens (Human), UniProt P49137). The experiment is described as follows: MK2 Omnia continuous-read kinase assay for compound potency. To be noted: [MK-2]=0.4 nM, [ATP]=10 μM, [ST3-Sox]=10 μM; room temperature. The experiment is classed as biochemical. A digest of the protocol:
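p38a-activated MK2 (0.4 nM) with 10 μM ATP (apparent Km) and 10 μM S/T3-Sox peptide in Tris pH 7.5 buffer with MgCl2, EGTA and DTT. Fluorescence (ex360/em485) read continuously for 120 min at room temperature. IC50 from initial linear slopes; apparent kinact/KI from kobs of exponential progress-curve fits.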
A word on the IC50: it is the concentration that gives 50% inhibition. Turning to `C=Cc1cc(-c2ccc3c(ccc4sc5c(c43)NC[C@@H](C)NC5=O)n2)c(OCCN2CCCC2)nn1` [Example I-118, (R)-10-methyl-3-(3-(2-(pyrrolidin-1-yl)ethoxy)-6-vinylpyridazin-4-yl)-9,10,11,12-tetrahydro-8H-[1,4]diazepino[5′,6′:4,5]thieno[3,2-f]quinolin-8-one], the IC50 turned out to be 28 nM.
Turning to `C[C@@H]1CNc2c(sc3ccc4nc(-c5cc(Cl)nnc5OCCN5CCCC5)ccc4c23)C(=O)N1` [Example I-119, (R)-3-(6-chloro-3-(2-(pyrrolidin-1-yl)ethoxy)pyridazin-4-yl)-10-methyl-9,10,11,12-tetrahydro-8H-[1,4]diazepino[5′,6′:4,5]thieno[3,2-f]quinolin-8-one], the IC50 amounted to 981 nM.
Next, `C#Cc1cc(-c2ccc3c(ccc4sc5c(c43)NC[C@@H](C)NC5=O)n2)c(OCCN2CCCC2)nn1` [Example I-120, (R)-3-(6-ethynyl-3-(2-(pyrrolidin-1-yl)ethoxy)pyridazin-4-yl)-10-methyl-9,10,11,12-tetrahydro-8H-[1,4]diazepino[5′,6′:4,5]thieno[3,2-f]quinolin-8-one]: 45 nM.
With `C=Cc1cc(-c2ccc3c(ccc4sc5c(c43)NC[C@@H](C)NC5=O)n2)cc(CN2CCC(OC)CC2)n1` [Example I-121, (R)-3-(2-((4-methoxypiperidin-1-yl)methyl)-6-vinylpyridin-4-yl)-10-methyl-9,10,11,12-tetrahydro-8H-[1,4]diazepino[5′,6′:4,5]thieno[3,2-f]quinolin-8-one], the IC50 is 11 nM.
Consider `C#Cc1cc(-c2ccc3c(ccc4sc5c(c43)NC[C@@H](C)NC5=O)n2)cc(CN2CCC(OC)CC2)n1` [Example I-122, (R)-3-(2-ethynyl-6-((4-methoxypiperidin-1-yl)methyl)pyridin-4-yl)-10-methyl-9,10,11,12-tetrahydro-8H-[1,4]diazepino[5′,6′:4,5]thieno[3,2-f]quinolin-8-one], for which the IC50 was determined as 40 nM.
Regarding `C=Cc1cc(-c2ccc3c(ccc4sc5c(c43)NC[C@@H](C)NC5=O)n2)cc(CN2CCC(F)(F)CC2)n1` [Example I-123, (R)-3-(2-((4,4-difluoropiperidin-1-yl)methyl)-6-vinylpyridin-4-yl)-10-methyl-9,10,11,12-tetrahydro-8H-[1,4]diazepino[5′,6′:4,5]thieno[3,2-f]quinolin-8-one], the IC50 is 31 nM.
Regarding `C#Cc1cc(-c2ccc3c(ccc4sc5c(c43)NC[C@@H](C)NC5=O)n2)cc(CN2CCC(F)(F)CC2)n1` [Example I-124, (R)-3-(2-((4,4-difluoropiperidin-1-yl)methyl)-6-ethynylpyridin-4-yl)-10-methyl-9,10,11,12-tetrahydro-8H-[1,4]diazepino[5′,6′:4,5]thieno[3,2-f]quinolin-8-one], the IC50 stood at 125 nM.
Next, `C=Cc1cc(-c2ccc3c(ccc4sc5c(c43)NC[C@@H](C)NC5=O)n2)cc(CN2CCN(C)CC2)n1` [Example I-125, (R)-10-methyl-3-(2-((4-methylpiperazin-1-yl)methyl)-6-vinylpyridin-4-yl)-9,10,11,12-tetrahydro-8H-[1,4]diazepino[5′,6′:4,5]thieno[3,2-f]quinolin-8-one]: 2 nM.
With `C#Cc1cc(-c2ccc3c(ccc4sc5c(c43)NC[C@@H](C)NC5=O)n2)cc(CN2CCN(C)CC2)n1` [Example I-126, (R)-3-(2-ethynyl-6-((4-methylpiperazin-1-yl)methyl)pyridin-4-yl)-10-methyl-9,10,11,12-tetrahydro-8H-[1,4]diazepino[5′,6′:4,5]thieno[3,2-f]quinolin-8-one], the IC50 is 34 nM.
For `C=Cc1cc(-c2ccc3c(ccc4sc5c(c43)NC[C@@H](C)NC5=O)n2)c(OC)nn1` [Example I-127, (R)-3-(3-methoxy-6-vinylpyridazin-4-yl)-10-methyl-9,10,11,12-tetrahydro-8H-[1,4]diazepino[5′,6′:4,5]thieno[3,2-f]quinolin-8-one] the value was 50 nM.
